Patent publication EP1147134B1, “NOVEL POTASSIUM CHANNELS AND GENES ENCODING THESE POTASSIUM CHANNELS” (NEUROSEARCH A/S, priority 1999, dated 2000)

Assays:
KCNQ4 = target: T1, KCNQ4 (Homo sapiens, UniProt P56696); assay: Two-electrode voltage clamp of KCNQ4 currents in Xenopus oocytes; format: cell-based
T1 construct: A complete cDNA was assembled and cloned into the oocyte expression vector PTLN; expressed in transfected cells; host or cells: Xenopus oocytes injected with capped cRNA from the PTLN vector
T1 sequence (P56696 1-695): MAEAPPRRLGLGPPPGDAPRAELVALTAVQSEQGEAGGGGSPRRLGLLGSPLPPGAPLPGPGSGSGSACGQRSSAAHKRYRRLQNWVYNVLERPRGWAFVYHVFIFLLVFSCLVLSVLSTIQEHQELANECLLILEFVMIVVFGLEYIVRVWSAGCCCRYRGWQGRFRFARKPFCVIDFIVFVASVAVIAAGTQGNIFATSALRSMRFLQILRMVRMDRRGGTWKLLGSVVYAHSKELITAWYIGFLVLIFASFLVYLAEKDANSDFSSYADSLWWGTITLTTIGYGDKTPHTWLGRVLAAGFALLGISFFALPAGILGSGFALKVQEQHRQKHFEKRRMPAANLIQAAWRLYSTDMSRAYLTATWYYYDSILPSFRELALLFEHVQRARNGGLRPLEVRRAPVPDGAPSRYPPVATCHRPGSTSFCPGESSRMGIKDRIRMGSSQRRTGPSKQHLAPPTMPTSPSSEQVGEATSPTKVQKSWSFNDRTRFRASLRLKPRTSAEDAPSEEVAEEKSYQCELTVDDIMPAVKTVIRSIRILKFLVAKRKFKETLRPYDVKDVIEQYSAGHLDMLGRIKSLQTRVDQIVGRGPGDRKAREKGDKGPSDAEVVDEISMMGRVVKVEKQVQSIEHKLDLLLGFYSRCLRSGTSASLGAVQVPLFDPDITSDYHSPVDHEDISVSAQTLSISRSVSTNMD
Protocol: (§1) KCNQ4 was expressed in Xenopus oocytes and its activity was investigated by two-electrode voltage clamping.
(§2) After linearization of the KCNQ4-containing PTLN vector with Hpal, capped cRNA was transcribed in vitro using the mMessage mMachine cRNA synthesis kit (Ambion). Usually 5 - 15 ng of cRNA were injected into Xenopus oocytes previously isolated by manual defolliculation and short collagenase treatment. In co-expression experiments cRNAs were injected at a 1:1 ratio. Oocytes were kept at 17°C in modified Barth's solution (90 mM NaCl, 1 mM KCl, 0.41 mM CaCl2, 0.33 mM Ca(NO3)2, 0.82 mM MgSO4, 10 mM HEPES, 100 U penicillin-100 µg streptomycin/ml, pH 7.6).
(§3) Standard two-electrode voltage-clamp measurements were performed at room temperature 2-4 days after injection using a Turbotec 05 amplifier (npi instruments, Tamm, Germany) and pClamp 5.5 software (Axon Instruments). Currents were usually recorded in ND98 solution (see Table 2). Solutions for Na^+ / K^+ replacement experiments were prepared from an appropriate mixture of solution KD100 (100 mM KCl) and ND100 (100 mM NaCl) to yield the stated concentrations of Na^+ and K^+. Linopirdine (RBI, Natick, MA) was prepared as a 100 mM stock solution in DMSO and added to a final concentration of 200 µM to ND98.

KCNQ3/KCNQ4 = target: T2, KCNQ3/KCNQ4 (Homo sapiens, UniProt O43525+P56696); assay: Two-electrode voltage clamp of Xenopus oocytes co-injected with KCNQ3 and KCNQ4 cRNA; format: cell-based; conditions: 200 µM Linopirdine in ND98, currents measured at +40 mV, cRNAs 1:1
T2 construct: A complete cDNA was assembled and cloned into the oocyte expression vector PTLN; expressed in transfected cells; host or cells: Xenopus oocytes co-injected with KCNQ3 and KCNQ4 cRNA
T2 sequence (P56696 1-695): T1 sequence (P56696 1-695)
T2 sequence (O43525 1-872): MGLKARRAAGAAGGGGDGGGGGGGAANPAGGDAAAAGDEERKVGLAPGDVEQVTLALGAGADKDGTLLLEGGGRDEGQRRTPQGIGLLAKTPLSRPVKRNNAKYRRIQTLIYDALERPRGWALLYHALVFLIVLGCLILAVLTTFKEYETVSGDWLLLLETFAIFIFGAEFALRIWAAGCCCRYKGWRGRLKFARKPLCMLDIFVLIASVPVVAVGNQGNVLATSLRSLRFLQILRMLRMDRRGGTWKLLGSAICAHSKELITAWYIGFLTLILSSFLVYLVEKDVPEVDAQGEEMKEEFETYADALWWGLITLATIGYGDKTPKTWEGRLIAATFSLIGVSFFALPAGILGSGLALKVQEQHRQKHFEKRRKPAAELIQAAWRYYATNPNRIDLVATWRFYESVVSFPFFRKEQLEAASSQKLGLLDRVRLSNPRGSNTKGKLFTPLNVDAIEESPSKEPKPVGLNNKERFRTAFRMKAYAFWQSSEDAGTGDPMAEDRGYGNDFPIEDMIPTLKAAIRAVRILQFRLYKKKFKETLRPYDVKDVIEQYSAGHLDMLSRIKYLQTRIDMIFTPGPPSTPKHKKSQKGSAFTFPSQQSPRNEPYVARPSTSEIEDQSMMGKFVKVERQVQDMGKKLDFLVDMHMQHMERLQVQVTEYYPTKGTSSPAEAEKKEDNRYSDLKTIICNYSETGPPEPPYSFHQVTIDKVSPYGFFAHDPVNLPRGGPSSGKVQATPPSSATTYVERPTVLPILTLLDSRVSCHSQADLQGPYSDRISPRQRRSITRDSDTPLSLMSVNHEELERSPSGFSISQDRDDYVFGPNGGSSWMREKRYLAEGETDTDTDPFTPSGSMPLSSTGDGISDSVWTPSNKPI
Protocol: as §1, §2, §3

KCNQ2/KCNQ3 channels = conditions: concentration of 200 µM; cited from earlier work

With `O=C1N(c2ccccc2)c2ccccc2C1(Cc1ccncc1)Cc1ccncc1` [Linopirdine, 1,3-dihydro-1-phenyl-3,3-bis(4-pyridylmethyl)-2H-indol-2-one] the inhibition at 200 µM (KCNQ4; 200 µM Linopirdine in ND98, currents measured at +40 mV, Xenopus oocytes) was about 30%, the “time until steady-state inhibition was reached, KCNQ4 currents” value (KCNQ4; upon addition of 200 µM Linopirdine) was ~ 1 min and the “inhibition with KCNQ3/KCNQ4 co-expression” value (KCNQ3/KCNQ4) was “≈ 75%”. The “inhibition of KCNQ2/KCNQ3 channels” value (KCNQ2/KCNQ3 channels) was “nearly completely inhibits”.
